From ChEMBL document CHEMBL6092214, “Design, synthesis, and pharmacological characterization of sulfonylurea-based NLRP3 inhibitors: Towards an effective therapeutic strategy for Alzheimer's disease” (Eur J Med Chem, 2024)
pIC50, pKd: −log10 of the molar value. Activity calls are given as the source filed them. No cut-off for these calls is given here.

What was measured:
[1] = biological target: T1, NACHT, LRR and PYD domains-containing protein 3 (Homo sapiens, UniProt Q96P20); assay: (§1) Inhibition of NLRP3 inflammasome activation in PMA-differentiated human THP-1 cells assessed as reduction in LPS/MSU-induced IL-1beta secretion preincubated with LPS for 3 hrs followed by compound addition for 30 mins prior to MSU addition and measured after 4 hrs by ELISA method; assay type: cell-based
[2] = biological target: NACHT, LRR and PYD domains-containing protein 3 (Mus musculus) (UniProt Q8R4B8); assay: Inhibition of NLRP3 inflammasome activation in mouse BMDM cells assessed as effect on LPS/Nigericin induced ASC expression level at 10 to 40 nM by Western blot analysis; assay type: cell-based; conditions: dose 10-40 nM
Mus musculus [3] = species on record: Mus musculus; assay: Neuroprotective activity against scopolamine-induced cognitive impairment in AD mouse model assessed as reduction in escape latency by Morris water maze test; assay type: functional, organism-based; conditions: dose 5-30 mg/kg
[4] = biological target: T1, NACHT, LRR and PYD domains-containing protein 3; assay: Inhibition of NLRP3 inflammasome activation in LPS/Nigericin induced PMA-differentiated human THP-1 cells assessed as effect on mitochondrial membrane potential by Mitotracker staining based immunofluorescence analysis; assay type: cell-based
[5] = Hepatotoxicity in mouse assessed as effect on AST level at 10 mg/kg measured after 30 days; assay type: toxicity, organism-based; conditions: in vivo, 720 h, time 30 day
Mus musculus [6] = assay: Locomotor activity in mouse assessed as effect on total distance traveled at 30 mg/kg measured for 1.5 hrs by Open field test; assay type: functional, organism-based
[7] = biological target: NACHT, LRR and PYD domains-containing protein 3 (Mus musculus) (UniProt Q8R4B8); assay: Inhibition of NLRP3 inflammasome activation in mouse BMDM cells assessed as effect on LPS/Nigericin induced pro-IL-1beta expression level at 10 to 40 nM by Western blot analysis; assay type: cell-based; conditions: dose 10-40 nM
[8] = biological target: NACHT, LRR and PYD domains-containing protein 3 (Mus musculus) (UniProt Q8R4B8); assay: Inhibition of NLRP3 inflammasome activation in mouse BMDM cells assessed as decrease in LPS/Nigericin induced caspase-1 level by Western blot analysis; assay type: cell-based; conditions: dose 10-40 nM
[9] = biological target: T1, NACHT, LRR and PYD domains-containing protein 3; assay: as §1, with “LPS/Nigericin-induced” for “LPS/MSU-induced”, “secretion at 30 nM” for “secretion”, “nigericin” for “MSU”, “30 mins” for “4 hrs”; assay type: cell-based; conditions: time 1.0 hrs
[10] = biological target: NACHT, LRR and PYD domains-containing protein 3 (Mus musculus) (UniProt Q8R4B8); assay: Inhibition of NLRP3 inflammasome activation in mouse BMDM cells assessed as effect on LPS/Nigericin induced NEK7 expression level at 10 to 40 nM by Western blot analysis; assay type: cell-based; conditions: dose 10-40 nM
[11] = biological target: NACHT, LRR and PYD domains-containing protein 3 (Mus musculus) (UniProt Q8R4B8); assay: Inhibition of NLRP3 inflammasome activation in mouse BMDM cells assessed as decrease in LPS/Nigericin induced IL-1 beta level by Western blot analysis; assay type: cell-based; conditions: dose 10-40 nM
[12] = biological target: T1, NACHT, LRR and PYD domains-containing protein 3; assay: as §1, with “LPS/ATP-induced” for “LPS/MSU-induced”, “secretion at 3 nM” for “secretion”, “ATP” for “MSU”, “30 mins” for “4 hrs”, “method relative to control” for “method”; assay type: cell-based; conditions: time 1.0 hrs
Mus musculus [13] = assay: Anti-aging activity in […] AD mouse model assessed as reduction in beta-galactosidase level at 10 mg/kg administered via gavage daily for 30 days; assay type: functional, organism-based; conditions: time 30.0 day
HEK293 = assay: Cytotoxicity against HEK293 cells assessed as cell viability at 0.39 to 100 uM incubated for 24 hrs by CCK-8 method; assay type: toxicity, cell-based; conditions: human, hek293, 24 h, dose 0.39-100 µM
[14] = biological target: T1, NACHT, LRR and PYD domains-containing protein 3; assay: Inhibition of NLRP3 inflammasome activation in LPS/Nigericin induced PMA-differentiated human THP-1 cells assessed as effect on ROS production by measuring red fluorescence by MitoSOX staining based immunofluorescence analysis; assay type: cell-based
[15] = biological target: NACHT, LRR and PYD domains-containing protein 3 (Mus musculus) (UniProt Q8R4B8); assay: Inhibition of NLRP3 inflammasome activation in mouse BMDM cells assessed as effect on LPS/Nigericin induced NLRP3 expression level at 10 to 40 nM by Western blot analysis; assay type: cell-based; conditions: dose 10-40 nM
[16] = biological target: T1, NACHT, LRR and PYD domains-containing protein 3; assay: Binding affinity to NLRP3 (unknown origin) assessed as dissociation constant by Surface Plasmon Resonance analysis
[17] = Hepatotoxicity in mouse assessed as effect on ALT level at 10 mg/kg measured after 30 days; assay type: toxicity, organism-based; conditions: in vivo, 720 h, time 30 day
[18] = biological target: T1, NACHT, LRR and PYD domains-containing protein 3; assay: as §1, with “LPS/Nigericin-induced” for “LPS/MSU-induced”, “secretion at 3 nM” for “secretion”, “nigericin” for “MSU”, “30 mins” for “4 hrs”, “method relative to control” for “method”; assay type: cell-based; conditions: time 1.0 hrs
[19] = biological target: NACHT, LRR and PYD domains-containing protein 3 (Mus musculus) (UniProt Q8R4B8); assay: Inhibition of NLRP3 inflammasome activation in mouse BMDM cells assessed as effect on LPS/Nigericin induced procaspase-1 expression level at 10 to 40 nM by Western blot analysis; assay type: cell-based; conditions: dose 10-40 nM
Mus musculus [20] = assay: Anti-aging activity in […] AD mouse model assessed as upregulation of IGF-1 expression at 10 mg/kg administered via gavage daily for 30 days; assay type: functional, organism-based; conditions: time 30.0 day
[21] = biological target: T1, NACHT, LRR and PYD domains-containing protein 3; assay: Inhibition of NLRP3 inflammasome activation in PMA-differentiated human THP-1 cells assessed as reduction in LPS/ATP-induced IL-1beta secretion at 30 nM preincubated with LPS for 3 hrs followed by compound addition for 30 mins prior to ATP addition and measured after 30 mins by ELISA method; assay type: cell-based; conditions: time 1.0 hrs
Mus musculus [22] = assay: Neuroprotective activity against scopolamine-induced cognitive impairment in AD mouse model assessed as reduction in escape latency at 10 mg/kg administered daily by Morris water maze test; assay type: functional, organism-based

NACHT, LRR and PYD domains-containing protein 3 (Mus musculus), sequence (Q8R4B8 whole entry, the tested form may be a part): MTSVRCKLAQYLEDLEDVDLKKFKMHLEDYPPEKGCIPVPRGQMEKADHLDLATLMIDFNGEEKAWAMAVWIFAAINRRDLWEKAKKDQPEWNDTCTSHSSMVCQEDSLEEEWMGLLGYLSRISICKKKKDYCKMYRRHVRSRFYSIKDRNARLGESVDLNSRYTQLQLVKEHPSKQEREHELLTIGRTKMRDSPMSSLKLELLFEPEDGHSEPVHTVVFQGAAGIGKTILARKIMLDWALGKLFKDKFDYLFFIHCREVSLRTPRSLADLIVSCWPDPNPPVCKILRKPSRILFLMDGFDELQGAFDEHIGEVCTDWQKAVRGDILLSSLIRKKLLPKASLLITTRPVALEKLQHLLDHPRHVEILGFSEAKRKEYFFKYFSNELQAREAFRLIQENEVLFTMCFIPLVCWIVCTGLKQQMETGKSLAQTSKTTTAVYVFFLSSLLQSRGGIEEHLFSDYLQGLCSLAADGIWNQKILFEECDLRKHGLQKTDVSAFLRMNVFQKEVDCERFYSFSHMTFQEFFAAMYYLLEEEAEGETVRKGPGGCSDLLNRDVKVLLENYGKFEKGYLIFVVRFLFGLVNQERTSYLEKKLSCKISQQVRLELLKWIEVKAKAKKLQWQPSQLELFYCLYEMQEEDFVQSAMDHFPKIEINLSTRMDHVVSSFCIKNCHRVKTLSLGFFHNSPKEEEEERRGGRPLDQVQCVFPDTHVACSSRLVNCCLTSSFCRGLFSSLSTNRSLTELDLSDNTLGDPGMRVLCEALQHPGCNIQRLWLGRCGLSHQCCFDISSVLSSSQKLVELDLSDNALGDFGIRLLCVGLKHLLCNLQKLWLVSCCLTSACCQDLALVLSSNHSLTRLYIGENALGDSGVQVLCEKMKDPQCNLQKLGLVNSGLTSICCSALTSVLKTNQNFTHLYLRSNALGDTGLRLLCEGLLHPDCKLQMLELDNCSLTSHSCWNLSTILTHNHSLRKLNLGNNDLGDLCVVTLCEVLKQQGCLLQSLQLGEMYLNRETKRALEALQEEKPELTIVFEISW
T1 sequence (Q96P20 whole entry, the tested form may be a part): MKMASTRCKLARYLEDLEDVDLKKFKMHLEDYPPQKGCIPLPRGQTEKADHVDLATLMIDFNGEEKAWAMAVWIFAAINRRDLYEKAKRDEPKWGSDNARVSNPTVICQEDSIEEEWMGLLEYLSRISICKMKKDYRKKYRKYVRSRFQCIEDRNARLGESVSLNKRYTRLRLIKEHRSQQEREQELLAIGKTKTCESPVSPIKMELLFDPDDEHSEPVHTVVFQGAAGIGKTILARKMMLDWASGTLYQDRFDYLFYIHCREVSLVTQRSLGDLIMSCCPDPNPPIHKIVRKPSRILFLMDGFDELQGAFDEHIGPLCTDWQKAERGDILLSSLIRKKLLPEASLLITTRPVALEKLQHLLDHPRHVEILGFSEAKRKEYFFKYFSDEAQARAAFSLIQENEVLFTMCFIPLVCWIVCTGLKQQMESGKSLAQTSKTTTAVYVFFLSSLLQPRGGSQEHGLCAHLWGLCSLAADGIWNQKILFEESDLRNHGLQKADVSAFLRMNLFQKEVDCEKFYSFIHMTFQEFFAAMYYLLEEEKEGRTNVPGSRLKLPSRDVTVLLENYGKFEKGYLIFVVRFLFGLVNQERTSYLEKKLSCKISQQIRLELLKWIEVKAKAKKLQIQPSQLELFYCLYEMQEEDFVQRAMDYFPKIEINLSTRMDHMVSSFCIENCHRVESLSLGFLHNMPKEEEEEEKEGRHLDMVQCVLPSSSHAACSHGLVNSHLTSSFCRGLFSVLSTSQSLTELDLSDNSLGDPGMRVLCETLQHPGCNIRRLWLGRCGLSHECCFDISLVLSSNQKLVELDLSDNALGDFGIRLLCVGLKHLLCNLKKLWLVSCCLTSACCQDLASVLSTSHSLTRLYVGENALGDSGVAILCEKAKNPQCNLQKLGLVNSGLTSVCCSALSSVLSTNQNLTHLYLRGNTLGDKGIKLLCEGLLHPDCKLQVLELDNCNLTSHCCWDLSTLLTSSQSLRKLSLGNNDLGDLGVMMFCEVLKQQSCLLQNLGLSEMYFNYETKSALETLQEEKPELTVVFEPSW

`O=C(Nc1c(-c2ccc([N+](=O)[O-])cc2)ccc2c1CCC2)NS(=O)(=O)c1cccs1` showed a pIC50 [1] of 7.27.

For `Cc1nn(C)cc1S(=O)(=O)NC(=O)Nc1c(-c2ccc([N+](=O)[O-])cc2)ccc2c1CCC2`, the pIC50 [1] was < 6.00.

For `CC(C)(O)c1coc(S(=O)(=O)NC(=O)Nc2c(-c3cccc(OC(F)(F)F)c3)ccc3c2CCC3)c1`, the pIC50 [1] was 6.45.

With `CC(C)(O)c1csc(S(=O)(=O)NC(=O)Nc2c(-c3ccc([N+](=O)[O-])cc3)ccc3c2CCC3)c1` the inhibition [2] was “inactive”, the Activity (Mus musculus [3]) was “Dose-dependent-effect” and the inhibition [4] was “inactive”. The Activity [5] was “Non-toxic”, the Activity (Mus musculus [6]) was “Active” and the inhibition [7] was “inactive”. The inhibition [8] was “Dose-dependent-effect”, the inhibition [9] was “Active; Compound Nearly Abolished Il-1 Beta Secretion” and the inhibition [10] was “inactive”. The inhibition [11] was “Dose-dependent-effect”, the inhibition [12] was > 50% and the Activity (Mus musculus [13]) was “Active”. The Activity (HEK293) was “Non-toxic”, the inhibition [14] was “inactive” and the inhibition [15] was “inactive”. The pKd [16] was 7.71, the Activity [17] was “Non-toxic” and the inhibition [18] was > 50%. For the same molecule, the pIC50 [1] was 7.92, the inhibition [19] was “inactive” and the Activity (Mus musculus [20]) was “Active”. The inhibition [21] was “Active; Compound Nearly Abolished Il-1 Beta Secretion”.

In the case of `O=C(Nc1c(-c2ccc([N+](=O)[O-])cc2)ccc2c1CCC2)NS(=O)(=O)c1cnn2c1OCCC2`, the pIC50 [1] was 6.17.

Work on `CN[C@H]1COc2c(S(=O)(=O)NC(=O)Nc3c(-c4ccc([N+](=O)[O-])cc4)ccc4c3CCC4)cnn2C1` yielded a pIC50 [1] of 6.59.

For `Cc1ccsc1S(=O)(=O)NC(=O)Nc1c(-c2ccc([N+](=O)[O-])cc2)ccc2c1CCC2`, the pIC50 [1] was < 6.00.

`CCOc1ccc2cc(-c3ccc4c(c3NC(=O)NS(=O)(=O)c3cc(C(C)(C)O)co3)CCC4)ccc2c1` showed a pIC50 [1] of 7.14.

In the case of `Cc1cc(F)ccc1-c1ccc2c(c1NC(=O)NS(=O)(=O)c1cc(C(C)(C)O)co1)CCC2`, the pIC50 [1] was 6.25.

`COC(=O)c1csc(S(=O)(=O)NC(=O)Nc2c(-c3ccc([N+](=O)[O-])cc3)ccc3c2CCC3)c1` gave a pIC50 [1] of 6.48.

`CC(C)(O)c1coc(S(=O)(=O)NC(=O)Nc2c(-c3ccc([N+](=O)[O-])cc3)ccc3c2CCC3)c1` gave a pIC50 [1] of 8.22.

For `CC(C)c1cccc(-c2ccc3c(c2NC(=O)NS(=O)(=O)c2cc(C(C)(C)O)co2)CCC3)c1`, the pIC50 [1] was < 6.00.

With `COc1cccc(OC)c1-c1ccc2c(c1NC(=O)NS(=O)(=O)c1cc(C(C)(C)O)co1)CCC2` the pIC50 [1] was < 6.00.

With `CC(C)(C)c1cc(-c2ccc3c(c2NC(=O)NS(=O)(=O)c2cc(C(C)(C)O)co2)CCC3)cc(C(C)(C)C)c1` the pIC50 [1] was < 6.00.

In the case of `O=C(Nc1c(-c2ccc([N+](=O)[O-])cc2)ccc2c1CCC2)NS(=O)(=O)c1cc(Br)cs1`, the pIC50 [1] was < 6.00.

For `CC(C)c1cc(I)cc(C(C)C)c1NC(=O)NS(=O)(=O)c1cc(C(C)(C)O)co1`, the pIC50 [1] was 7.51.

In the case of `CN(C)c1cccc(-c2ccc3c(c2NC(=O)NS(=O)(=O)c2cc(C(C)(C)O)co2)CCC3)c1`, the pIC50 [1] was < 6.00.

With `O=C(Nc1c(-c2ccc([N+](=O)[O-])cc2)ccc2c1CCC2)NS(=O)(=O)c1ccc2ccccc2c1` the pIC50 [1] was < 6.00.

`Cc1cccc(-c2ccc3c(c2NC(=O)NS(=O)(=O)c2cc(C(C)(C)O)co2)CCC3)c1` showed a pIC50 [1] of 7.12.

With `CCCCNS(=O)(=O)c1cccc(-c2ccc3c(c2NC(=O)NS(=O)(=O)c2cc(C(C)(C)O)co2)CCC3)c1` the pIC50 [1] was < 6.00.

With `CN(C)Cc1ccc(S(=O)(=O)NC(=O)Nc2c(-c3ccc([N+](=O)[O-])cc3)ccc3c2CCC3)cc1` the pIC50 [1] was < 6.00.

`CC(=O)c1ccc(S(=O)(=O)NC(=O)Nc2c(-c3ccc([N+](=O)[O-])cc3)ccc3c2CCC3)cc1` showed a pIC50 [1] of 6.37.

With `O=C(Nc1c(-c2ccc([N+](=O)[O-])cc2)ccc2c1CCC2)NS(=O)(=O)CC1CCCCC1` the pIC50 [1] was < 6.00.

In the case of `CC(C)(O)CS(=O)(=O)NC(=O)Nc1c(-c2ccc([N+](=O)[O-])cc2)ccc2c1CCC2`, the pIC50 [1] was < 6.00.

For `Nc1cccc(S(=O)(=O)NC(=O)Nc2c(-c3ccc([N+](=O)[O-])cc3)ccc3c2CCC3)c1`, the pIC50 [1] was 6.39.

For `CC(C)(O)c1coc(S(=O)(=O)NC(=O)Nc2c3c(cc4c2CCC4)CCC3)c1`, the Activity (Mus musculus [22]) was “Active”.

With `COCCOc1ccc(-c2ccc3c(c2NC(=O)NS(=O)(=O)c2cc(C(C)(C)O)co2)CCC3)cc1` the pIC50 [1] was 6.61.

Work on `O=C(Nc1c(-c2ccc([N+](=O)[O-])cc2)ccc2c1CCC2)NS(=O)(=O)c1ccccc1` yielded a pIC50 [1] of 6.45.

Work on `CCCCOc1cccc(-c2ccc3c(c2NC(=O)NS(=O)(=O)c2cc(C(C)(C)O)co2)CCC3)c1` yielded a pIC50 [1] of 6.54.

With `O=C(Nc1c(-c2ccc([N+](=O)[O-])cc2)ccc2c1CCC2)NS(=O)(=O)N1CCOCC1` the pIC50 [1] was < 6.00.

For `Cn1ccc(S(=O)(=O)NC(=O)Nc2c(-c3ccc([N+](=O)[O-])cc3)ccc3c2CCC3)n1`, the pIC50 [1] was < 6.00.

With `CCCCc1ccc(-c2ccc3c(c2NC(=O)NS(=O)(=O)c2cc(C(C)(C)O)co2)CCC3)cc1` the pIC50 [1] was < 6.00.

For `CC(C)(O)c1coc(S(=O)(=O)NC(=O)Nc2c(-c3ccnc(F)c3)ccc3c2CCC3)c1`, the pIC50 [1] was 7.57.

With `O=C(Nc1c(-c2ccc([N+](=O)[O-])cc2)ccc2c1CCC2)NS(=O)(=O)N1CCCC1` the pIC50 [1] was < 6.00.

In the case of `Cc1ccc(S(=O)(=O)NC(=O)Nc2c(-c3ccc([N+](=O)[O-])cc3)ccc3c2CCC3)cc1`, the pIC50 [1] was < 6.00.

`O=C(Nc1c(-c2ccc([N+](=O)[O-])cc2)ccc2c1CCC2)NS(=O)(=O)c1cccc(Br)n1` showed a pIC50 [1] of 6.67.

For `O=C(Nc1c(-c2ccc([N+](=O)[O-])cc2)ccc2c1CCC2)NS(=O)(=O)CCO`, the pIC50 [1] was < 6.00.

For `COc1cncc(-c2ccc3c(c2NC(=O)NS(=O)(=O)c2cc(C(C)(C)O)co2)CCC3)c1`, the pIC50 [1] was 7.49.

`CCCCNC(=O)c1cccc(-c2ccc3c(c2NC(=O)NS(=O)(=O)c2cc(C(C)(C)O)co2)CCC3)c1` showed a pIC50 [1] of 7.08.

For `CC(C)(O)c1coc(S(=O)(=O)NC(=O)Nc2c3c(cc(Br)c2OC2CCCC2)CCC3)c1`, the pIC50 [1] was < 6.00.

In the case of `O=C(Nc1c(-c2ccc([N+](=O)[O-])cc2)ccc2c1CCC2)NS(=O)(=O)c1cccnc1`, the pIC50 [1] was < 6.00.
